Consider five compounds from patent US8455014B2, “Composition comprising Trachelospermi caulis and Pyrola japonica extracts for the treatment and prevention of inflammatory diseases” (Sinil Pharmaceutical Co., Ltd., priority 2007, dated 2013).

Assay [1] concerns vascular permeability induced by acetic acid. Put plainly: Acetic acid-induced vascular permeability in mice. Conditions: Evans blue in abdominal cavity, OD 630 nm. Format: in vivo, ICR mice. As for the experimental part:
The inhibitory effect of the mixed herbal extract obtained in the above reference example 3 against vascular permeability was investigated.
Seven week old ICR mice were separated into each experimental group, orally administered with Trachelospermi caulis extract at a concentration of 20 mg/kg and 200 mg/kg, respectively, Pyrola japonica extract at a concentration of 20 mg/kg and 200 mg/kg, respectively, and a mixed […], respectively, after dissolving them in distilled water to a concentration of 0.1 mL/10 g b.wt., by using a sonde.
The dosage volume was determined based on the body weight measured on the day of experiment and the control group was only administered with distilled water, a preparation solvent, at a concentration of 0.1 mL/10 g b.wt. Phenylbutazone was orally administered with a dosage of 50 mg/kg b.wt. after suspending it in 0.5% methyl cellulose.
ICR male mice, which were fasted for 12 hours prior to the experiment, were administered with a test substance according to the method of Whittle (1964). […] The washing solution was collected from the abdominal cavity and then centrifuged at 2,000 rpm for 10 minutes and the supernatant was measured of its optical density at 630 nm by using a spectrophotometer to calculate the amount of Evan's blue solution flowed into the abdominal cavity. […]

In the next assay the test system is NF-κB. Conditions: human keratinocytes; J Dermatol Sci. 2003; 31(3):193-201; cited from earlier work.
The next assay relates to TNF-α. Conditions: Int Immunopharmacol. 2004; 4(10-11):1419-29; cited from earlier work.

As for `CCCCC1C(=O)N(c2ccccc2)N(c2ccccc2)C1=O` [phenylbutazone], in assay [1] (50 mg/kg oral), the Leakage of dye came to 39.0 ± 3.45 μg/10 g b. wt.

Turning to `OC[C@H]1O[C@@H](Oc2ccc(O)cc2)[C@H](O)[C@@H](O)[C@@H]1O` [Arbutin], the “activity of NF-κB” value with NF-κB is listed as “inhibit the activity of NF-κB”.

Turning to `COc1cc(C[C@H]2C(=O)OC[C@@H]2Cc2ccc(OC)c(OC)c2)ccc1O` [arctigenin], the TNF-α inhibitory activity result in the assay on TNF-α is on record as “TNF-α inhibitory activity”.

In assay [1] (1 mg/kg), `COc1ccc2c(c1)c(CC(=O)O)c(C)n2C(=O)c1ccc(Cl)cc1` [indomethacin] gave a Leakage of dye of 36.3 ± 2.67 μg/10 g b. wt.

`COc1ccc(C[C@H]2COC(=O)[C@@H]2Cc2ccc(O[C@@H]3O[C@H](CO)[C@@H](O)[C@H](O)[C@H]3O)c(OC)c2)cc1OC` [arctiin]: in the assay with TNF-α, the TNF-α inhibitory activity result is on record as “TNF-α inhibitory activity”.
